Source: the supplement of paper PMC13380429

Key:
Conditions in all cases: 72 h
Caco-2 [1] = test: relative viability EC50 (midpoint between 100% and the lowest measured viability); higher = less toxic
U2OS [2] = test: as above
Vero E6 [3] = test: as above
Calu-3 [4] = test: as above
HepG2 [5] = test: as above
Caco-2 [6] = test: cell viability relative to DMSO; higher = less toxic
U2OS [7] = test: as above
Vero E6 [8] = test: as above
Calu-3 [9] = test: as above
HepG2 [10] = test: as above
Caco-2 [11] = test: drug sensitivity score (DSS) for viability; higher = more toxic; extreme values may be limits of the assay
U2OS [12] = test: as above
Vero E6 [13] = test: as above
Calu-3 [14] = test: as above
HepG2 [15] = test: as above

SMILES	relative viability EC50 (Caco-2 [1]) [µM]	relative viability EC50 (U2OS [2]) [µM]	relative viability EC50 (Vero E6 [3]) [µM]	relative viability EC50 (Calu-3 [4]) [µM]	relative viability EC50 (HepG2 [5]) [µM]	cell viability (Caco-2 [6]; 1 nM) [%]	cell viability (Caco-2 [6]; 10 nM) [%]	cell viability (Caco-2 [6]; 100 nM) [%]	cell viability (Caco-2 [6]; 1000 nM) [%]	cell viability (Caco-2 [6]; 10000 nM) [%]	cell viability (U2OS [7]; 1 nM) [%]	cell viability (U2OS [7]; 10 nM) [%]	cell viability (U2OS [7]; 100 nM) [%]	cell viability (U2OS [7]; 1000 nM) [%]	cell viability (U2OS [7]; 10000 nM) [%]	cell viability (Vero E6 [8]; 1 nM) [%]	cell viability (Vero E6 [8]; 10 nM) [%]	cell viability (Vero E6 [8]; 100 nM) [%]	cell viability (Vero E6 [8]; 1000 nM) [%]	cell viability (Vero E6 [8]; 10000 nM) [%]	cell viability (Calu-3 [9]; 1 nM) [%]	cell viability (Calu-3 [9]; 10 nM) [%]	cell viability (Calu-3 [9]; 100 nM) [%]	cell viability (Calu-3 [9]; 1000 nM) [%]	cell viability (Calu-3 [9]; 10000 nM) [%]	cell viability (HepG2 [10]; 1 nM) [%]	cell viability (HepG2 [10]; 10 nM) [%]	cell viability (HepG2 [10]; 100 nM) [%]	cell viability (HepG2 [10]; 1000 nM) [%]	cell viability (HepG2 [10]; 10000 nM) [%]	drug sensitivity score (Caco-2 [11])	drug sensitivity score (U2OS [12])	drug sensitivity score (Vero E6 [13])	drug sensitivity score (Calu-3 [14])	drug sensitivity score (HepG2 [15])
Cc1nc2ccc(Oc3ccc(F)cc3)cc2c(=O)n1C[C@H]1CCCN(C(C)C)C1 [YIL-781]	> 10	> 10	> 10	> 10	> 10	102	93.5	87.2	97.5	92.6	104	97.1	98.6	94.4	94.7	93.8	98.3	96.4	94.3	88.3	107	88.2	94.9	97.7	97.8	101	100	97.4	102	90.7	0	0	0	0	0
O=C(c1ccc(F)cc1)C1CCN(CCCCc2ccccc2)CC1 [4-(4-fluorobenzoyl)-1-(4-phenylbutyl)-piperidine]	> 10	> 10	> 10	> 10	> 10	98.9	99.6	106	90.4	94.9	99.4	96.8	96.8	95.9	98.2	103	105	102	98.9	95.7	104	106	87.9	106	85.8	101	96	95.2	101	79.4	0	0	0	0.1	0.6
CCC(C)SSc1ncc[nH]1 (stereo not given) [PX-12]	> 10	> 10	> 10	> 10	> 10	90.8	100	102	93.1	97.7	98	96.4	103	97.5	84.1	96.7	97.8	103	97.5	99.8	106	98	110	84	104	99.3	104	104	98.3	89.8	0	0.6	0	0	0
CN(C)CCOc1ccc(-c2nc(-c3ccncc3)c(-c3ccc4c(c3)CC/C4=N\O)[nH]2)cc1	> 10	> 10	> 10	> 10	0.748	106	103	99.1	101	98.6	93	108	99.6	116	114	102	98.5	105	112	113	99.6	94.5	114	115	117	110	102	96.8	39.8	3.5	0	0	0	0	12.6
CC1(C)OC(=O)NC1=O [dimethadione]	> 10	> 10	> 10	> 10	> 10	99.9	98.9	105	97.7	98.3	101	103	95	98.6	96.2	112	108	108	97.7	102	92.4	107	100	105	109	106	102	96.9	95.9	95.1	0	0	0	0	0
O=C(O)CC/C=C\C[C@@H]1CO[C@H](c2ccccc2Cl)O[C@@H]1c1ccccc1O (racemic)	> 10	> 10	> 10	> 10	> 10	91.4	90.3	105	96.9	92.6	96.6	95	97.4	95.5	99.2	93.1	96.3	92.6	102	106	93.8	96.1	102	99	98.9	88.5	103	106	108	110	0	0	0	0	0
Cc1ccc(C(=O)C(C)CN2CCCCC2)cc1 (stereo not given) [tolperisone]	> 10	> 10	> 10	> 10	> 10	92.4	98.5	94.9	94.4	94.6	102	100	97.2	98.4	98.1	97.6	99.4	104	100	99.4	107	93.2	110	100	99.4	94.2	95	96.3	102	86.5	0	0	0	0	0.1
C[C@@H](N)Cc1c[nH]c2ccc(O)cc12 [alpha-methylserotonin]	> 10	> 10	> 10	> 10	> 10	96.1	93	88	92.8	101	99	102	99.8	97.4	107	91.1	94.5	94.4	90.3	104	89.6	99.1	95.3	92.9	91.1	105	102	100	96.9	105	0	0	0	0	0
CCC(C)(C)C(=O)C(=O)N1CCC[C@H]1C(=O)OCCCc1cccnc1 [GPI-1046]	> 10	> 10	> 10	> 10	> 10	96.5	96	89.5	105	105	97.6	95.3	91.7	102	104	100	96.4	100	91.6	96.9	101	88.9	106	103	113	86.9	98.6	108	90.7	91.4	0	0	0	0	0.6
COC1=CC(=O)C[C@@H](C)[C@]12Oc1c(Cl)c(OC)cc(OC)c1C2=O [griseofulvin]	> 10	> 10	> 10	> 10	> 10	106	88.5	93.6	103	88.1	102	100	102	98.8	96.2	104	98.8	91.1	107	94.8	106	95.7	98	107	108	86.3	95.5	95.6	101	90	0	0	0	0	0
CC(C)NCC(O)c1ccc2ccccc2c1 (stereo not given) [pronethalol]	> 10	> 10	> 10	> 10	> 10	89.8	97.7	87.4	90.8	93.1	98.5	105	97.7	102	95.5	112	106	100	94.3	98.7	91.1	99	101	93.8	93.8	105	91.6	104	87	106	0	0	0	0	0
CC(C)c1cc(C(=O)N2Cc3ccc(CN4CCN(C)CC4)cc3C2)c(O)cc1O	0.174	0.232	0.492	0.145	0.068	98.5	94.8	85.8	40	39.1	101	102	85.3	8.1	3.4	104	104	101	40.4	30.7	101	96.4	77.8	41.7	38.9	108	103	28.4	1.5	1.2	13.1	18.8	11	13.3	26
Cc1nccc2c1[nH]c1ccccc12 [harmane]	> 10	> 10	> 10	> 10	> 10	95.1	101	105	102	93	101	98.8	100	97.5	101	97.2	102	94.3	96.6	98.2	106	97.7	101	91.8	103	92.9	96.2	99.6	99.1	105	0	0	0	0	0
CON(C)C(=O)[C@H](O)[C@H](Cc1ccccc1)NC(=O)c1cc2cc(Cl)ccc2[nH]1	> 10	> 10	> 10	> 10	> 10	91.9	105	92.9	100	90.4	99.3	102	98.6	101	95.9	106	101	103	94.2	101	88.7	109	92.7	106	118	105	95.3	103	90.5	90.1	0	0	0	0	0
N[C@@H](Cc1c[nH]c2ccc(O)cc12)C(=O)O [5-hydroxytryptophan]	> 10	> 10	> 10	> 10	> 10	93.3	94.5	92.5	88.8	103	100	97.3	99.6	94.2	96.6	98.4	95.7	100	92.3	95.5	93.6	94.7	94.1	94.4	107	102	97.4	105	106	94.9	0	0	0	0	0
CC1=C(/C=C/C(C)=C/C=C/C(C)=C/C=C/C=C(C)/C=C/C=C(C)/C=C/C2=C(C)CCCC2(C)C)C(C)(C)CCC1 [beta-carotene]	> 10	> 10	> 10	> 10	> 10	89.3	99.3	104	92.7	98.5	92.6	95.1	102	93.9	101	93.8	102	96.3	104	108	98.9	104	104	97.4	105	96.1	103	94.6	110	106	0	0	0	0	0
O=C1NC(=O)c2c1c1c3ccccc3[nH]c1c1[nH]c3ccccc3c21 [arcyriaflavin-a]	> 10	> 10	> 10	> 10	0.158	98.1	107	99.9	98.9	85.4	104	99.8	101	96.9	93.7	103	103	99.5	92.1	91.7	105	112	95.6	104	106	91.7	101	86.3	43.3	47.4	0.3	0	0	0	12.6
COCCNC(=O)COc1ccc(OCCNC[C@H](O)COc2ccccc2)cc1 [ZD-7114]	> 10	> 10	> 10	> 10	> 10	95.5	95.1	94.7	86.2	103	98.4	94.5	104	102	102	103	101	96.7	104	96.5	99.1	97.2	106	90	108	100	106	93.7	104	97.1	0	0	0	0	0
Cn1cc(C[C@@H](N)C(=O)O)c2ccccc21 [indoximod]	> 10	> 10	> 10	> 10	> 10	94.5	83.8	81.7	91.7	104	102	97	102	99.4	103	104	95.4	91.6	101	102	107	98.7	96.3	103	106	114	97.6	102	118	101	0.1	0	0	0	0
Cc1ncc(CO)c(C=O)c1O [pyridoxal]	> 10	> 10	> 10	> 10	> 10	114	104	104	112	92.1	98.6	95.7	103	103	99.9	102	92.6	96	94.4	102	105	91.4	99.9	99.7	118	91	81.7	102	94.1	80	0	0	0	0	1.3
c1ccc2nc(C3=NCCN3)ccc2c1 [BU-224]	> 10	> 10	> 10	> 10	> 10	97.7	96.9	101	88.7	90.2	99.8	98.8	99.2	95.6	98.8	98.7	99.5	97.3	102	99	98.5	106	106	89.3	119	104	94.3	94.2	99.8	87.2	0.3	0	0	0	0.1
C[C@]12CCC(=O)C=C1[C@@H]1C[C@@H]1[C@H]1[C@@H]3[C@@H]4C[C@@H]4[C@@]4(CCC(=O)O4)[C@@]3(C)CC[C@@H]12 [drospirenone]	> 10	> 10	> 10	> 10	> 10	86.1	96.5	96.1	94.1	108	98.7	102	103	104	88.3	108	102	112	101	89.2	99.5	97.9	97.4	100	120	99.1	102	106	98.4	92.7	0	0	0	0	0
CCOCc1nc2c(N)nc3ccccc3c2n1CC(C)(C)O [resiquimod]	> 10	> 10	> 10	> 10	> 10	97.7	96.7	97.3	90.4	91.3	99.7	103	101	100	97.8	108	101	100	99.9	102	102	101	94.7	101	92	103	104	103	101	94.5	0	0	0	0	0
